Test results reported in patent US12447167B2, “GM-CSF-producing t-cell control agent and Th1/Th2 immune balance regulator” (National Center of Neurology and Psychiatry, priority 2014, dated 2025).

Assays:
[1] = Disposition after single oral dose, humans (normal subjects); format: in vivo, human; design: concentration in blood: unit not given here; settings: for AUC(0-inf) / AUC(0-t) / half-life / Cmax / Tmax: human; for AUC(0-inf) / AUC(0-t) / half-life: blood; for AUC(0-inf) / AUC(0-t) / half-life / Cmax / Tmax / concentration in blood: normal subjects; for Cmax / Tmax: plasma
Description: After a single dose of compound 31 labeled with ^14C was orally administered at a predetermined dose to each of a male mouse, a male rat, and a male cynomolgus monkey under fasting conditions, the concentration in blood was measured after a lapse of a given time, and parameters such as maximum plasma concentration Cmax, time Tmax to reach the maximum plasma concentration, half-life t1/2, area under curve AUC0-∞, mean retention time MRT0-∞, and bioavailability BA were calculated. The concentration in blood in humans (normal subjects) was measured and each of the parameters was calculated, in the similar manner as above except that ^14C-unlabeled compound 31 was used.
In the tables, “N.D.” means not detected.
In this context, assuming the body weights of the humans were 60 kg, the doses were corrected to be the same, and the value of AUC0-∞ was compared between the mouse, the rat, and the cynomolgus monkey, and the humans. […] Specifically, AUC0-∞ for the humans was 2.72 to 8.94 times AUC0-∞ for the mouse, 4.77 to 15.7 times AUC0-∞ for the rat, and 6.69 to 22.0 times AUC0-∞ for the cynomolgus monkey.

[2] = Disposition after single oral dose, MS patients; format: in vivo, human; settings: 0.3 mg/body single oral
Description: In the similar manner as in Example 5, a single dose of compound 31 labeled with ^14C was orally administered to each of 2 MS patients (subjects) after obtainment of informed consent, and the concentration of the compound in blood was measured and each parameter was calculated by collecting blood after a lapse of a given time.

species difference (fold) of dose-corrected AUC0-∞, human vs cynomolgus monkey ([1]; human 0.3 mg/body (60 kg assumed) vs cynomolgus monkey 10 mg/kg): 19.70 fold
species difference (fold) of dose-corrected AUC0-∞, human vs mouse ([1]; human 0.3 mg/body (60 kg assumed) vs mouse 5 mg/kg): 8.01 fold
species difference (fold) of dose-corrected AUC0-∞, human vs rat ([1]; human 0.3 mg/body (60 kg assumed) vs rat 10 mg/kg): 14.05 fold
species difference (fold) of dose-corrected AUC0-∞, human vs cynomolgus monkey ([1]; human 1 mg/body (60 kg assumed) vs cynomolgus monkey 10 mg/kg): 21.99 fold
species difference (fold) of dose-corrected AUC0-∞, human vs mouse ([1]; human 1 mg/body (60 kg assumed) vs mouse 5 mg/kg): 8.94 fold
species difference (fold) of dose-corrected AUC0-∞, human vs rat ([1]; human 1 mg/body (60 kg assumed) vs rat 10 mg/kg): 15.69 fold
species difference (fold) of dose-corrected AUC0-∞, human vs cynomolgus monkey ([1]; human 3 mg/body (60 kg assumed) vs cynomolgus monkey 10 mg/kg): 12.29 fold
species difference (fold) of dose-corrected AUC0-∞, human vs mouse ([1]; human 3 mg/body (60 kg assumed) vs mouse 5 mg/kg): 5.00 fold
species difference (fold) of dose-corrected AUC0-∞, human vs rat ([1]; human 3 mg/body (60 kg assumed) vs rat 10 mg/kg): 8.77 fold
species difference (fold) of dose-corrected AUC0-∞, human vs cynomolgus monkey ([1]; human 10 mg/body (60 kg assumed) vs cynomolgus monkey 10 mg/kg): 9.62 fold
species difference (fold) of dose-corrected AUC0-∞, human vs mouse ([1]; human 10 mg/body (60 kg assumed) vs mouse 5 mg/kg): 3.91 fold
species difference (fold) of dose-corrected AUC0-∞, human vs rat ([1]; human 10 mg/body (60 kg assumed) vs rat 10 mg/kg): 6.86 fold
species difference (fold) of dose-corrected AUC0-∞, human vs cynomolgus monkey ([1]; human 30 mg/body (60 kg assumed) vs cynomolgus monkey 10 mg/kg): 6.69 fold
species difference (fold) of dose-corrected AUC0-∞, human vs mouse ([1]; human 30 mg/body (60 kg assumed) vs mouse 5 mg/kg): 2.72 fold
species difference (fold) of dose-corrected AUC0-∞, human vs rat ([1]; human 30 mg/body (60 kg assumed) vs rat 10 mg/kg): 4.77 fold
AUC(0-inf) ([1]; 0.3 mg/body oral): 23.4 ng·h/mL
AUC(0-t) ([1]; 0.3 mg/body oral): 11.7 ng·h/mL
half-life ([1]; 0.3 mg/body oral): 21.4 h
AUC(0-inf) ([1]; 1 mg/body oral): 87.1 ng·h/mL
AUC(0-t) ([1]; 1 mg/body oral): 63.4 ng·h/mL
half-life ([1]; 1 mg/body oral): 44.3 h
AUC(0-inf) ([1]; 3 mg/body oral): 146 ng·h/mL
AUC(0-t) ([1]; 3 mg/body oral): 121 ng·h/mL
half-life ([1]; 3 mg/body oral): 47.8 h
AUC(0-inf) ([1]; 10 mg/body oral): 381 ng·h/mL
AUC(0-t) ([1]; 10 mg/body oral): 324 ng·h/mL
half-life ([1]; 10 mg/body oral): 45.3 h
AUC(0-inf) ([1]; 30 mg/body oral): 795 ng·h/mL
AUC(0-t) ([1]; 30 mg/body oral): 657 ng·h/mL
half-life ([1]; 30 mg/body oral): 53.6 h
Cmax ([1]; 0.3 mg/body oral): 0.629 ng/mL
Tmax ([1]; 0.3 mg/body oral): 13 h
Cmax ([1]; 1 mg/body oral): 1.49 ng/mL
Tmax ([1]; 1 mg/body oral): 20.7 h
Cmax ([1]; 3 mg/body oral): 2.11 ng/mL
Tmax ([1]; 3 mg/body oral): 28.3 h
Cmax ([1]; 10 mg/body oral): 6.01 ng/mL
Tmax ([1]; 10 mg/body oral): 26.3 h
Cmax ([1]; 30 mg/body oral): 9.81 ng/mL
Tmax ([1]; 30 mg/body oral): 28.3 h
concentration in blood ([1]; 0.3 mg/body oral, 6 h): 0.368
concentration in blood ([1]; 0.3 mg/body oral, 13 h): 0.629
concentration in blood ([1]; 0.3 mg/body oral, 21 h): 0.365
concentration in blood ([1]; 0.3 mg/body oral, 24 h): 0.31
concentration in blood ([1]; 0.3 mg/body oral, 30 h): 0.382
concentration in blood ([1]; 1 mg/body oral, 6 h): 0.368
concentration in blood ([1]; 1 mg/body oral, 13 h): 1.39
concentration in blood ([1]; 1 mg/body oral, 21 h): 1.04
concentration in blood ([1]; 1 mg/body oral, 24 h): 0.98
concentration in blood ([1]; 1 mg/body oral, 30 h): 0.961
concentration in blood ([1]; 1 mg/body oral, 36 h): 1.01
concentration in blood ([1]; 1 mg/body oral, 48 h): 0.719
concentration in blood ([1]; 1 mg/body oral, 72 h): 0.484
concentration in blood ([1]; 1 mg/body oral, 96 h): 0.224
concentration in blood ([1]; 3 mg/body oral, 6 h): 0.337
concentration in blood ([1]; 3 mg/body oral, 13 h): 1.13
concentration in blood ([1]; 3 mg/body oral, 21 h): 1.33
concentration in blood ([1]; 3 mg/body oral, 24 h): 1.33
concentration in blood ([1]; 3 mg/body oral, 30 h): 1.7
concentration in blood ([1]; 3 mg/body oral, 36 h): 1.99
concentration in blood ([1]; 3 mg/body oral, 48 h): 1.37
concentration in blood ([1]; 3 mg/body oral, 72 h): 0.838
concentration in blood ([1]; 3 mg/body oral, 96 h): 0.549
concentration in blood ([1]; 3 mg/body oral, 144 h): 0.266
concentration in blood ([1]; 10 mg/body oral, 6 h): 2.01
concentration in blood ([1]; 10 mg/body oral, 13 h): 3.32
concentration in blood ([1]; 10 mg/body oral, 21 h): 3.15
concentration in blood ([1]; 10 mg/body oral, 24 h): 3.33
concentration in blood ([1]; 10 mg/body oral, 30 h): 3.76
concentration in blood ([1]; 10 mg/body oral, 36 h): 5.37
concentration in blood ([1]; 10 mg/body oral, 48 h): 3.66
concentration in blood ([1]; 10 mg/body oral, 72 h): 2.23
concentration in blood ([1]; 10 mg/body oral, 96 h): 1.42
concentration in blood ([1]; 10 mg/body oral, 144 h): 0.689
concentration in blood ([1]; 30 mg/body oral, 6 h): 2.82
concentration in blood ([1]; 30 mg/body oral, 13 h): 6.65
concentration in blood ([1]; 30 mg/body oral, 21 h): 6.98
concentration in blood ([1]; 30 mg/body oral, 24 h): 7.47
concentration in blood ([1]; 30 mg/body oral, 30 h): 8.08
concentration in blood ([1]; 30 mg/body oral, 36 h): 9.46
concentration in blood ([1]; 30 mg/body oral, 48 h): 6.58
concentration in blood ([1]; 30 mg/body oral, 72 h): 4.65
concentration in blood ([1]; 30 mg/body oral, 96 h): 3.05
concentration in blood ([1]; 30 mg/body oral, 144 h): 1.82
concentration in blood in MS patients as compared with normal persons [2]: low concentration in blood
AUC(0-t) ([2]; human, blood): 1.41 ng·h/mL
Cmax ([2]; human, blood): 0.122 ng/mL
Tmax ([2]; human, blood): 18 h
Structure (SMILES): CCCCCCCCCCCCCCCCCCCCCCCC(=O)NC(COC1OC(CO)C(O)C(O)C1O)[C@H](O)C(O)CCCCC (stereo in doubt) [compound 31, (2S,3S,4R)-1-O-(α-D-galactosyl)-2-(N-tetracosanoylamino)-1,3,4-nonanetriol]
